Test results as given in ChEMBL document CHEMBL3046366, “Inhibitory effect of curcumin analogs on tissue factor procoagulant activity and their preliminary structureactivity relationships” (Med Chem Res, 2013).

Tests used:
Tissue factor [1] = biological target: T1, Tissue factor (Homo sapiens, UniProt P13726); assay: Inhibition of tissue factor in Homo sapiens (human) THP1-cells using factor 10a chromogenic substrate assessed as inhibition of LPS-iduced procoagulant activity incubated for 1 hr prior to LPS-challenge measured after 5 hr by spectrophotometric analysis; type: cell-based; settings: thp-1
T1 sequence (P13726 whole entry): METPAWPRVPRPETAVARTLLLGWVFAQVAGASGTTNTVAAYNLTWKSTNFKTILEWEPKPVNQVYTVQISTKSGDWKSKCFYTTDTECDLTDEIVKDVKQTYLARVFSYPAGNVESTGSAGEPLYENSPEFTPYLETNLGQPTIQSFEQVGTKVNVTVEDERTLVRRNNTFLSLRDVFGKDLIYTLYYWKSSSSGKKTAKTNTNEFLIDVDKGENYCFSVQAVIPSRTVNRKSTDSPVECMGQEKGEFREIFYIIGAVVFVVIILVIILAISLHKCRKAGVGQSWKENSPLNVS

[2] = Inhibition of tissue factor in Homo sapiens (human) THP1-cells using factor 10a chromogenic substrate assessed as inhibition of LPS-iduced procoagulant activity incubated for 1 hr prior to LPS-challenge measured after 5 hr by spectrophotometric analysis; settings: thp-1
Tissue factor [3] = biological target: T1, Tissue factor; assay: Ratio of curcumin IC50 to compound IC50 for tissue factor in LPS-induced Homo sapiens (human) THP1 cells; type: cell-based; settings: THP-1

IC50 (Tissue factor [1]) [nM] | IC50 [2] [nM] | Ratio IC50 (Tissue factor [3]) | Compound
2.58 |  |  | O=C(/C=C/c1ccc(O)cc1)/C=C/c1ccc(O)cc1
> 200 |  |  | COc1ccc(/C=C2\CCC/C(=C\c3ccc(OC)cc3)C2=O)cc1
0.96 |  |  | O=C(/C=C/c1ccc(O)cc1)c1ccc(O)cc1 [4,4'-DIHYDROXYCHALCONE]
13.4 |  |  | COc1ccc(/C=C/C(=O)/C=C/c2ccc(OC)cc2)cc1
0.94 |  |  | O=C1/C(=C/c2ccc(O)cc2)CCC/C1=C\c1ccc(O)cc1
0.26 |  |  | O=C1/C(=C/c2ccccc2)CCC/C1=C\c1ccccc1 [2,6-DIBENZYLIDENECYCLOHEXANONE]
 | 200 |  | COc1cc(/C=C/C(=O)CC(=O)/C=C/c2ccc(O)c(OC)c2)ccc1O [CURCUMIN]
142 |  |  | COc1ccc(C(=O)/C=C/c2ccc(O)cc2)cc1
> 200 |  |  | COc1cc(/C=C2\CCC/C(=C\c3ccc(O)c(OC)c3)C2=O)ccc1O [CYCLOVALONE]
> 200 |  |  | COc1cc(/C=C/C(=O)/C=C/c2ccc(O)c(OC)c2)ccc1O
0.053 |  | 10000 | O=C(/C=C/c1ccccc1)/C=C/c1ccccc1
0.12 |  | 10000 | O=C(/C=C/c1ccccc1)c1ccc(O)cc1 [4'-HYDROXYCHALCONE]
15.4 |  |  | COc1ccc(/C=C/C(=O)c2ccc(OC)cc2)cc1 [4,4'-DIMETHOXYCHALCONE]
